According to patent US11800868B2, “Isoflavonoid compounds and use thereof” (Novozymes BioAg A/S, priority 2004, dated 2023):

Experiments:
potato = assay: Growth promotion of potato tubers with signals, field; type: in vivo
Procedure: Notes: • 1. Microtubers (cv. Bintje, tuber size from 0.5-0.7 g) were soaked in each test solution overnight at 25° C. in the incubator. Treatment rate was 50 ml/treatment, and 50 ml water as control. • 2. […] Treated potato tubers were planted in soil 10-15 cm deep, 10 tubers in 10 M^2 plot and supplied 500 ml of water to each tuber in ground after planting. • 4. Planted date: Aug. 20, 2004 and harvested date: Oct. 15, 2004.

tomato = assay: Signal applied to tomato seedling roots transplanted into soil inoculated with soybean rhizobia (field)

With `O=c1c(-c2ccc(O)cc2)coc2cc(O)cc(O)c12` [genistein] the tuber size (potato; 300-500 μM) was “larger tuber size”, the “potato tuber yield increase over control” value (potato; microtubers soaked in 300 μM solution overnight) was “up to 17.7%” and the Fruit/plot (tomato; 100 ml at 1 μM/plant, Early) was 67.75. For the same molecule, the “Fruit/plot % vs ctrl” value (tomato; 100 ml at 1 μM/plant, Early) was 16.81%, the Kg/plot (tomato; 100 ml at 1 μM/plant, Early) was 12.02 Kg/plot and the “Kg/plot % vs ctrl” value (tomato; 100 ml at 1 μM/plant, Early) was 15.47%. The Fruit/plot (tomato; 100 ml at 1 μM/plant, Normal) was 241.5, the “Fruit/plot % vs ctrl” value (tomato; 100 ml at 1 μM/plant, Normal) was 10.27% and the Kg/plot (tomato; 100 ml at 1 μM/plant, Normal) was 27.10 Kg/plot. For the same molecule, the “Kg/plot % vs ctrl” value (tomato; 100 ml at 1 μM/plant, Normal) was 5.86%, the Fruit/plot (tomato; 100 ml at 10 μM/plant, Early) was 66.25 and the “Fruit/plot % vs ctrl” value (tomato; 100 ml at 10 μM/plant, Early) was 14.22%. For the same molecule, the Kg/plot (tomato; 100 ml at 10 μM/plant, Early) was 11.64 Kg/plot, the “Kg/plot % vs ctrl” value (tomato; 100 ml at 10 μM/plant, Early) was 11.82% and the Fruit/plot (tomato; 100 ml at 10 μM/plant, Normal) was 217.75. The “Fruit/plot % vs ctrl” value (tomato; 100 ml at 10 μM/plant, Normal) was −0.57%, the Kg/plot (tomato; 100 ml at 10 μM/plant, Normal) was 25.91 Kg/plot and the “Kg/plot % vs ctrl” value (tomato; 100 ml at 10 μM/plant, Normal) was 1.21%. For the same molecule, the Fruit/plot (tomato; 100 ml at 50 μM/plant, Early) was 71, the “Fruit/plot % vs ctrl” value (tomato; 100 ml at 50 μM/plant, Early) was 22.41% and the Kg/plot (tomato; 100 ml at 50 μM/plant, Early) was 12.85 Kg/plot. The “Kg/plot % vs ctrl” value (tomato; 100 ml at 50 μM/plant, Early) was 23.44%, the Fruit/plot (tomato; 100 ml at 50 μM/plant, Normal) was 198.5 and the “Fruit/plot % vs ctrl” value (tomato; 100 ml at 50 μM/plant, Normal) was −9.36%. The Kg/plot (tomato; 100 ml at 50 μM/plant, Normal) was 25.77 Kg/plot and the “Kg/plot % vs ctrl” value (tomato; 100 ml at 50 μM/plant, Normal) was 0.66%.
